Where two headings read alike, the source gives them in different places.
Test system: acetaminophen-induced hepatotoxicity
Details: for Prothrombin time (indicator of hepatic function): FIG. 17
Protocol: Group 1: Untreated control (4 mice in this group only)
Group 2: 3 mg/kg of acetaminophen administered orally on the 7th day from the start of the test
Group 3: 1 mL of the blank micelles (6.25 mg/mL, 160 mg/kg) synthesized in Example 21 forcibly administered once per day via a feeding tube, 3 m g/kg of acetaminophen administered orally on the 7th day from the start of the test.
Group 5: 170 mg/kg of 4-amino-TEMPO forcibly administered once per day via a feeding tube, 3 mg/kg of acetaminophen administered orally on the 7th day from the start of the test.
Group 6: 600 mg/kg of acetylcysteine forcibly administered once per day via a feeding tube, 3 mg/kg of acetaminophen administered orally on the 7th day from the start of the test.

[1] = 6 mice before test, substance once per day by feeding tube (newRNP^N Example 16, m=13, 160 mg/kg; 4-amino-TEMPO 170 mg/kg; acetylcysteine 600 mg/kg), 3 mg/kg acetaminophen orally on 7th day
[2] = oral once per day, 3 mg/kg acetaminophen on 7th day, newRNP^N m=13

Row | SMILES | Numbers of mice alive, After test [1] | Prothrombin time (indicator of hepatic function) [2] | Toxicity by albumin quantity and AST, ALT and ALP enzyme levels (oral once per day, 3 mg/kg acetaminophen on 7th day, newRNP^N m=13, FIGS. 19 to 22) | Numbers of mice alive, After test (IGS, mouse, in vivo, po, 3 mg/kg, 1 day) | Share of mice that died within 1 day (acetaminophen alone, 3 mg/kg orally (group 2)) | Superoxide dismutase (SOD) production (oral once per day, 3 mg/kg acetaminophen on 7th day, newRNP^N m=13, FIG. 18)
1 | CC1(C)CC(N)CC(C)(C)N1[O] [4-amino-TEMPO] | 2 | extended | extremely high toxicity |  |  | 
2 | CC(=O)Nc1ccc(O)cc1 [acetaminophen] |  |  |  | 2 | two thirds | significant decrease
3 | CC(=O)N[C@@H](CS)C(=O)O [acetylcysteine] | 4 | extended |  |  |  | 

From US10208152B2, “Poly(ethylene glycol)-b-poly(halomethylstyrene), derivative thereof, and method for producing same” (priority 2014, dated 2019)
